Data reported in ChEMBL document CHEMBL1152723, “Remarkable enhancement in the DNA-binding ability of C2-fluoro substituted pyrrolo[2,1-c][1,4]benzodiazepines and their anticancer potential” (2009).

Assays:
DNA = experiment: Binding affinity to calf thymus DNA assessed as change in melting temperature at a compound to DNA molar ratio of 1:5 at pH 7 by thermal denaturation assay; type: nucleic-acid assay; conditions: Bos taurus
UACC-62 = experiment: Growth inhibition of human UACC62 cells after 48 hrs by sulforhodamine B protein assay; type: functional; conditions: UACC-62, 48 h
IGROV-1 = experiment: Growth inhibition of human IGROV1 cells after 48 hrs by sulforhodamine B protein assay; type: functional; conditions: IGROV-1, 48 h
OVCAR-3 = experiment: Growth inhibition of human OVCAR-3 cells after 48 hrs by sulforhodamine B protein assay; type: functional; conditions: OVCAR-3, 48 h
OVCAR-4 = experiment: Growth inhibition of human OVCAR4 cells after 48 hrs by sulforhodamine B protein assay; type: functional; conditions: OVCAR-4, 48 h
OVCAR-5 = experiment: Growth inhibition of human OVCAR5 cells after 48 hrs by sulforhodamine B protein assay; type: functional; conditions: OVCAR-5, 48 h
OVCAR-8 = experiment: Growth inhibition of human OVCAR8 cells after 48 hrs by sulforhodamine B protein assay; type: functional; conditions: OVCAR-8, 48 h
SK-OV-3 = experiment: Growth inhibition of human SKOV3 cells after 48 hrs by sulforhodamine B protein assay; type: functional; conditions: SK-OV-3, 48 h
786-0 = experiment: Growth inhibition of human 786-0 cells after 48 hrs by sulforhodamine B protein assay; type: functional; conditions: 786-0, 48 h
ACHN = experiment: Growth inhibition of human ACHN cells after 48 hrs by sulforhodamine B protein assay; type: functional
CAKI-1 = experiment: Growth inhibition of human Caki1 cells after 48 hrs by sulforhodamine B protein assay; type: functional; conditions: CAKI-1, 48 h
SN12C = experiment: Growth inhibition of human SN12C cells after 48 hrs by sulforhodamine B protein assay; type: functional
TK-10 = experiment: Growth inhibition of human TK10 cells after 48 hrs by sulforhodamine B protein assay; type: functional; conditions: TK-10, 48 h
UO-31 = experiment: Growth inhibition of human UO31 cells after 48 hrs by sulforhodamine B protein assay; type: functional; conditions: UO-31, 48 h
PC-3 = experiment: Growth inhibition of human PC3 cells after 48 hrs by sulforhodamine B protein assay; type: functional; conditions: PC-3, 48 h
DU-145 = experiment: Growth inhibition of human DU145 cells after 48 hrs by sulforhodamine B protein assay; type: functional; conditions: DU-145, 48 h
MCF7 = experiment: Growth inhibition of human MCF7 cells after 48 hrs by sulforhodamine B protein assay; type: functional; conditions: MCF7, 48 h
MDA-MB-231 = experiment: Growth inhibition of human MDA-MB-231 cells after 48 hrs by sulforhodamine B protein assay; type: functional; conditions: MDA-MB-231, 48 h
[1] = Growth inhibition of human Hs 578T cells after 48 hrs by sulforhodamine B protein assay; type: functional
MDA-MB-435 = experiment: Growth inhibition of human MDA-MB-435 cells after 48 hrs by sulforhodamine B protein assay; type: functional; conditions: MDA-MB-435, 48 h
BT-549 = experiment: Growth inhibition of human BT549 cells after 48 hrs by sulforhodamine B protein assay; type: functional; conditions: BT-549, 48 h
T47D = experiment: Growth inhibition of human T47D cells after 48 hrs by sulforhodamine B protein assay; type: functional
[2] = molecular target: T1, Type II restriction enzyme BamHI (Bacillus amyloliquefaciens) (UniProt P23940); experiment: Inhibition of Bacillus amyloliquefaciens BamH1-mediated pBR322 cleavage after 16 hrs by RED100-restriction endonuclease digestion assay
T1 sequence (whole entry): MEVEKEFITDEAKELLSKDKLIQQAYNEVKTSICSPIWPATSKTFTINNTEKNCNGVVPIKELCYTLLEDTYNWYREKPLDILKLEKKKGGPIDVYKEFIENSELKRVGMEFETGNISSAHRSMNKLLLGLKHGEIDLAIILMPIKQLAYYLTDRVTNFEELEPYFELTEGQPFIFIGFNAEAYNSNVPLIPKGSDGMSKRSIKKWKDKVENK

CCRF-CEM = experiment: Growth inhibition of human CCRF-CEM cells after 48 hrs by sulforhodamine B protein assay; type: functional
HL-60(TB) = experiment: Growth inhibition of human HL-60(TB) cells after 48 hrs by sulforhodamine B protein assay; type: functional; conditions: HL-60, 48 h
K562 = experiment: Growth inhibition of human K562 cells after 48 hrs by sulforhodamine B protein assay; type: functional; conditions: K562, 48 h
MOLT-4 = experiment: Growth inhibition of human MOLT4 cells after 48 hrs by sulforhodamine B protein assay; type: functional; conditions: MOLT-4, 48 h
[3] = Growth inhibition of human […] cells after 48 hrs by sulforhodamine B protein assay; type: functional
SR = experiment: Growth inhibition of human SR cells after 48 hrs by sulforhodamine B protein assay; type: functional
A549 = experiment: Growth inhibition of human A549 cells after 48 hrs by sulforhodamine B protein assay; type: functional; conditions: A549, 48 h
EKVX = experiment: Growth inhibition of human EKVX cells after 48 hrs by sulforhodamine B protein assay; type: functional
HOP-62 = experiment: Growth inhibition of human HOP62 cells after 48 hrs by sulforhodamine B protein assay; type: functional; conditions: HOP-62, 48 h
NCI-H226 = experiment: Growth inhibition of human NCI-H226 cells after 48 hrs by sulforhodamine B protein assay; type: functional; conditions: NCI-H226, 48 h
NCI-H23 = experiment: Growth inhibition of human NCI-H23 cells after 48 hrs by sulforhodamine B protein assay; type: functional; conditions: NCI-H23, 48 h
NCI-H322M = experiment: Growth inhibition of human NCI-H322M cells after 48 hrs by sulforhodamine B protein assay; type: functional
NCI-H460 = experiment: Growth inhibition of human NCI-H460 cells after 48 hrs by sulforhodamine B protein assay; type: functional; conditions: NCI-H460, 48 h
NCI-H522 = experiment: Growth inhibition of human NCI-H522 cells after 48 hrs by sulforhodamine B protein assay; type: functional; conditions: NCI-H522, 48 h
COLO 205 = experiment: Growth inhibition of human COLO205 cells after 48 hrs by sulforhodamine B protein assay; type: functional; conditions: COLO 205, 48 h
HCC 2998 = experiment: Growth inhibition of human HCC2998 cells after 48 hrs by sulforhodamine B protein assay; type: functional; conditions: HCC 2998, 48 h
HCT-116 = experiment: Growth inhibition of human HCT116 cells after 48 hrs by sulforhodamine B protein assay; type: functional; conditions: HCT-116, 48 h
HCT-15 = experiment: Growth inhibition of human HCT15 cells after 48 hrs by sulforhodamine B protein assay; type: functional; conditions: HCT-15, 48 h
HT-29 = experiment: Growth inhibition of human HT-29 cells after 48 hrs by sulforhodamine B protein assay; type: functional; conditions: HT-29, 48 h
KM12 = experiment: Growth inhibition of human KM12 cells after 48 hrs by sulforhodamine B protein assay; type: functional; conditions: KM12, 48 h
SW-620 = experiment: Growth inhibition of human SW620 cells after 48 hrs by sulforhodamine B protein assay; type: functional; conditions: SW-620, 48 h
SF-295 = experiment: Growth inhibition of human SF295 cells after 48 hrs by sulforhodamine B protein assay; type: functional; conditions: SF-295, 48 h
SF-539 = experiment: Growth inhibition of human SF539 cells after 48 hrs by sulforhodamine B protein assay; type: functional; conditions: SF-539, 48 h
SNB-19 = experiment: Growth inhibition of human SNB19 cells after 48 hrs by sulforhodamine B protein assay; type: functional; conditions: SNB-19, 48 h
SNB-75 = experiment: Growth inhibition of human SNB75 cells after 48 hrs by sulforhodamine B protein assay; type: functional; conditions: SNB-75, 48 h
U-251 = experiment: Growth inhibition of human U251 cells after 48 hrs by sulforhodamine B protein assay; type: functional; conditions: U-251, 48 h
LOX IMVI = experiment: Growth inhibition of human LOXIMVI cells after 48 hrs by sulforhodamine B protein assay; type: functional
Malme-3M = experiment: Growth inhibition of human MALME-3M cells after 48 hrs by sulforhodamine B protein assay; type: functional
SK-MEL-2 = experiment: Growth inhibition of human SK-MEL-2 cells after 48 hrs by sulforhodamine B protein assay; type: functional; conditions: SK-MEL-2, 48 h
SK-MEL-28 = experiment: Growth inhibition of human SK-MEL-28 cells after 48 hrs by sulforhodamine B protein assay; type: functional; conditions: SK-MEL-28, 48 h
UACC-257 = experiment: Growth inhibition of human UACC257 cells after 48 hrs by sulforhodamine B protein assay; type: functional; conditions: UACC-257, 48 h
A498 = experiment: Growth inhibition of human A498 cells after 48 hrs by sulforhodamine B protein assay; type: functional; conditions: A498, 48 h

COc1cc2c(cc1OCCCCOc1cc3c(cc1OC)C(=O)N1CC(F)(F)C[C@H]1C=N3)N=C[C@@H]1CC(F)(F)CN1C2=O
ΔTm (DNA): 4.2 °C

COc1cc2c(cc1OCCCCCN1CCN(CCCCCOc3cc4c(cc3OC)C(=O)N3CC(F)(F)C[C@H]3C=N4)CC1)N=C[C@@H]1CC(F)(F)CN1C2=O
ΔTm (DNA): 13 °C

COc1cc2c(cc1OCCCCCOc1cc3c(cc1OC)C(=O)N1CC(F)(F)C[C@H]1C=N3)N=C[C@@H]1CC(F)(F)CN1C2=O
ΔTm (DNA): 18.9 °C

COc1cc2c(cc1OCCCOc1cc3c(cc1OC)C(=O)N1CC(F)(F)C[C@H]1C=N3)N=C[C@@H]1CC(F)(F)CN1C2=O
GI50 (UACC-62): 410 nM | GI50 (IGROV-1): 110 nM | GI50 (OVCAR-3): 940 nM | GI50 (OVCAR-4): 1450 nM | GI50 (OVCAR-5): 750 nM | GI50 (OVCAR-8): 420 nM | GI50 (SK-OV-3): 600 nM | GI50 (786-0): < 10 nM | GI50 (ACHN): 650 nM | GI50 (CAKI-1): < 10 nM | GI50 (SN12C): 170 nM | GI50 (TK-10): 3450 nM | GI50 (UO-31): 1050 nM | GI50 (PC-3): < 80 nM | GI50 (DU-145): 370 nM | GI50 (MCF7): 130 nM | GI50 (MDA-MB-231): 800 nM | GI50 [1]: 170 nM | GI50 (MDA-MB-435): 570 nM | GI50 (BT-549): 410 nM | GI50 (T47D): 240 nM | ΔTm (DNA): 13.1 °C | Activity [2]: Dose-dependent effect | GI50 (CCRF-CEM): 410 nM | GI50 (HL-60(TB)): 250 nM | GI50 (K562): 530 nM | GI50 (MOLT-4): 80 nM | GI50 [3]: 1670 nM | GI50 (SR): < 60 nM | GI50 (A549): 1210 nM | GI50 (EKVX): 1720 nM | GI50 (HOP-62): 100 nM | GI50 (NCI-H226): 620 nM | GI50 (NCI-H23): 490 nM | GI50 (NCI-H322M): 2190 nM | GI50 (NCI-H460): < 80 nM | GI50 (NCI-H522): 140 nM | GI50 (COLO 205): 580 nM | GI50 (HCC 2998): 1030 nM | GI50 (HCT-116): 130 nM | GI50 (HCT-15): 8620 nM | GI50 (HT-29): 270 nM | GI50 (KM12): 2070 nM | GI50 (SW-620): 310 nM | GI50 (SF-295): < 30 nM | GI50 (SF-539): 150 nM | GI50 (SNB-19): 350 nM | GI50 (SNB-75): 80 nM | GI50 (U-251): 110 nM | GI50 (LOX IMVI): 200 nM | GI50 (Malme-3M): 1030 nM | GI50 (SK-MEL-2): 1620 nM | GI50 (SK-MEL-28): 1130 nM | GI50 (UACC-257): 1330 nM | GI50 (A498): 610 nM

COc1cc2c(cc1OCCCCN1CCN(CCCCOc3cc4c(cc3OC)C(=O)N3CC(F)(F)C[C@H]3C=N4)CC1)N=C[C@@H]1CC(F)(F)CN1C2=O
ΔTm (DNA): 14 °C

COc1cc2c(cc1OCCCOc1cc3c(cc1OC)C(=O)N1CCC[C@H]1C=N3)N=C[C@@H]1CCCN1C2=O
ΔTm (DNA): 10.2 °C
